We go through 2 compounds from patent publication US12441765B2, “Peptides and medical uses thereof” (Anbition S.R.L., priority 2018, dated 2025).

For one data set, the target named is T1, PIGF/VEGFR-1 interaction (Homo sapiens, UniProt P17948).
T1 construct: the form consisting of the seven extracellular domains of the receptor fused to the Fc domain of human lgG; purchased R&D Systems 321-FL (receptor); 264-PG (PlGF)
Nature of the data set: ELISA competition assay of PIGF binding to VEGFR-1. The settings on record: for binding % (PIGF/VEGFR-1 interaction): residual binding. The method, then:
The assay to test the binding of PIGF or VEGF-A with the VEGFR-1 receptor is based on the ELISA method [Ponticelli et al., JBC. 2008 Dec. 5; 283 (49): 34250-9] and was performed using reagents acquired from R&D Systems.
The human recombinant receptor VEGFR-1, in particular the form consisting of the seven extracellular domains of the receptor fused to the Fc domain of human lgG (R&D Systems, cat N° 321-FL), was made to adhere in the wells of 96-well microplates at a concentration of 0.5 μg/ml in PBS pH 7.5 (100 μl/well) for 16 hours at room temperature (RT).
After the non-specific binding sites had been blocked in the wells using a buffer solution consisting of PBS pH 7.5 containing 3% BSA, 5 ng/ml of recombinant PIGF (R&D Systems, cat N° 264-PG), or 5 ng/ml of recombinant VEGF-A (R&D Systems, cat N° 293-VE) of human origin in PBET (PBS pH 7.5, BSA 0.1%, EDTA 5 mM, Tween 0.004%) were added to the wells with the adhered receptor.
Simultaneously with the ligands, i.e., PIGF or VEGF-A, graduated doses of iVR1, iVR1-Cys or a control peptide (PC-[(S-Ser)-(S-Ala)-(S-Cha) tripeptide with a tetrameric structure identical to the structure of the iVR1 peptides]) were added at concentrations comprised between 780 and 50000 nM. The binding reaction was conducted for one hour at 37° C., followed by one hour at room temperature.
(§1) At the end of the binding and/or competition step, anti-human-PIGF biotinylated polyclonal antibodies (R&D Systems, cat No. BAF264) or anti-human-VEGF-A (R&D Systems, cat No. BAF293) were added to the wells at the concentration of 300 ng/ml in PBET. After one hour of incubation at 37° C. followed by one hour at room temperature, an HRP-conjugated avidin-streptavidin system (Vectastain elite ABC kit) and a substrate for HRP (o-phenylenediamine-Sigma, cat No. P1526) were added to the wells. Quantization was performed by determining the absorbance at 490 nm.
Any inhibitory activity of the peptides was expressed in terms of % of residual binding, comparing the data obtained for the binding of PIGF or VEGF-A to the receptors in the presence of the tetrameric peptides with those in the absence of the same. iVR1 represented the positive control of the inhibition of the PIGF/VEGFR-1 or VEGF-A/VEGFR-1 interaction.
In general terms: In an ELISA, binding on a coated surface is turned into a signal by an enzyme label.

In a further data set the target is VEGFR1 (Homo sapiens, UniProt P17948). The conditions noted are these: cited from earlier work.
Data set [1] has as its target T2, VEGF-A/VEGFR-1 interaction (Homo sapiens, UniProt P17948).
T2 construct: the form consisting of the seven extracellular domains of the receptor fused to the Fc domain of human lgG; purchased R&D Systems 321-FL (receptor); 293-VE (VEGF-A)
Nature of the data set: ELISA competition assay of VEGF-A binding to VEGFR-1. The conditions noted are these: for binding % (VEGF-A/VEGFR-1 interaction): residual binding. The method, then: as §1, with “The binding reaction was conducted for one hour at 37° C., followed by one hour at room temperature. At” for “At”, “nm. Any inhibitory activity of the peptides was expressed in terms of % of residual binding, comparing the data obtained for the binding of PIGF or VEGF-A to the receptors in the presence of the tetrameric peptides with those in the absence of the same. iVR1 represented the positive control of the inhibition of the PIGF/VEGFR-1 or VEGF-A/VEGFR-1 interaction.” for “nm.”

The nature of data set [2]: Serum protease stability in 10% fetal calf serum (RP-HPLC). The conditions noted are these: 10% FCS. The data set is classed as in vitro ADME. As to the method:
The stability of the peptide iVR1-Cys in 10% serum (fetal calf serum, FCS) in a 50 mM phosphate buffer solution, pH 7.3, at 168 h was determined as described by Ponticelli et al., relying on a method based on RP-HPLC chromatography, described therein [Ponticelli et al., J Biol Chem. 2008 Dec. 5; 283 (49): 34250-9].
The reference curve was constructed by dissolving the compound in DMSO at increasing concentrations of between 0.1 μmol/L and 1000 μmol/L in order to have complete dissolution. The concentration of the molecule left in contact with 10% FCS at the initial concentration of 10 μmol/L was then determined by drawing 3 aliquots at time t=0, then every hour in the first 12 hours and then at 24, 72, 120, and 168 h. The aliquots were diluted 1:1 with acetic acid 0.1 M in order to detach any peptide bound to the albumin, centrifuged to remove any precipitated materials and analyzed by RP-HPLC under the conditions reported in Ponticelli et al. The amount of residual peptide detected in the aliquots, expressed as a percentage relative to the initial amount, was plotted as a function of time. The results are shown in Table VII as the mean of the three determinations±the standard deviation (SD).

Where two headings read alike, the source gives them in different places.

T2 sequence (P17948 27-758 limits assumed): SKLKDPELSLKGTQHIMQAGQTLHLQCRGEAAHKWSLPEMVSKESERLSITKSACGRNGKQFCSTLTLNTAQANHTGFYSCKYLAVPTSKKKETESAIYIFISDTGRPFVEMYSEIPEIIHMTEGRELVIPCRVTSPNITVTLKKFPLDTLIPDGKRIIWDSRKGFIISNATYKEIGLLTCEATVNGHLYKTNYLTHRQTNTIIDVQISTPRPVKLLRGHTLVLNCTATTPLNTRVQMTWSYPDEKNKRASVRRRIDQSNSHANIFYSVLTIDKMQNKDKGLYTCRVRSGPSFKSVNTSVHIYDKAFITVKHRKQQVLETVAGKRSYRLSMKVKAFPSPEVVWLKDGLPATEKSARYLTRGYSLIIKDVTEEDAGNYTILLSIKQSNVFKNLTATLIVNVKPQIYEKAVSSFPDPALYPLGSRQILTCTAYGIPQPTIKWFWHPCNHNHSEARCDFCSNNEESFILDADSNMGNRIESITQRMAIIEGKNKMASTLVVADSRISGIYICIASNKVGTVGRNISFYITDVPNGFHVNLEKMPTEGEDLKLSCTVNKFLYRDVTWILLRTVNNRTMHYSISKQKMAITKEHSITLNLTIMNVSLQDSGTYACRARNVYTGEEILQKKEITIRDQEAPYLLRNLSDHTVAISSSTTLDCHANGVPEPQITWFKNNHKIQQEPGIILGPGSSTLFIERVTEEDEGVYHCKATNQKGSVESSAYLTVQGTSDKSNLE
T1 sequence (P17948 27-758 limits assumed): as above
VEGFR1, sequence (P17948 27-1338): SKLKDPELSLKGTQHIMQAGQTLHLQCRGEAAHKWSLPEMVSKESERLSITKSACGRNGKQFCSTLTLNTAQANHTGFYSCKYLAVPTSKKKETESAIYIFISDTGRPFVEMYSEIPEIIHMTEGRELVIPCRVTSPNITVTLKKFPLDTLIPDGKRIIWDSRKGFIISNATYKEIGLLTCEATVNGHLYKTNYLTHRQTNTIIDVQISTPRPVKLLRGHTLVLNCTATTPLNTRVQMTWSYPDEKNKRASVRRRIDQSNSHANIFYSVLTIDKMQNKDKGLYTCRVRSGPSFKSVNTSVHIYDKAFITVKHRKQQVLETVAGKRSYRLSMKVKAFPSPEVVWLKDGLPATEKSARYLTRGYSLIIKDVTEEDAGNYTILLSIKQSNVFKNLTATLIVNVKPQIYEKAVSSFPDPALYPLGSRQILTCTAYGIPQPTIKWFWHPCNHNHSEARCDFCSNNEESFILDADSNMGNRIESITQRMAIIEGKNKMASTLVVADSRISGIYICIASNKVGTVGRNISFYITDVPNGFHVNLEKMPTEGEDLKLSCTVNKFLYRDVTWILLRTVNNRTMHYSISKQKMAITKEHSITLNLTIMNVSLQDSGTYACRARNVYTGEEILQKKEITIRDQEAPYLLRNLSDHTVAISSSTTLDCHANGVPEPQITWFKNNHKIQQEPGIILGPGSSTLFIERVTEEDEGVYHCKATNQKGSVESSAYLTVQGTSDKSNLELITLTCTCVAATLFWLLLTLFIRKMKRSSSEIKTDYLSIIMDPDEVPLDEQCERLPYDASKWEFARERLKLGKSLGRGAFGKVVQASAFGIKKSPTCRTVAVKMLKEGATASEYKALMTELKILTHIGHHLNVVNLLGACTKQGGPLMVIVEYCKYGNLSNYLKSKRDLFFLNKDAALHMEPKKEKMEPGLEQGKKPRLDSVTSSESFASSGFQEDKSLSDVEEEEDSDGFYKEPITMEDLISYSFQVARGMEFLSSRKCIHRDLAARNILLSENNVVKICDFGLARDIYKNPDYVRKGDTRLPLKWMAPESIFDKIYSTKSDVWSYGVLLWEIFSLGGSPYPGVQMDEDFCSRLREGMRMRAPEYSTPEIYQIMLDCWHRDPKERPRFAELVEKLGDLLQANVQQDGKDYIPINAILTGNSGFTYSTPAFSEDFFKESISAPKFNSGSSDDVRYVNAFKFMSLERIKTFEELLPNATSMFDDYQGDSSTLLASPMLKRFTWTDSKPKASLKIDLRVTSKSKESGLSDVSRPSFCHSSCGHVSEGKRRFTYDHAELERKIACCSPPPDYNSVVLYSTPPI

As for `N[C@H](CCC(=O)O)C(=O)N[C@@H](CSCc1ccccc1)C(=O)N[C@@H](CC1CCCCC1)C(=O)NCCCC[C@H](NC(=O)[C@H](CC1CCCCC1)NC(=O)[C@H](CSCc1ccccc1)NC(=O)[C@H](N)CCC(=O)O)C(=O)NCCCC[C@H](NC(=O)[C@H](CCCCNC(=O)[C@H](CC1CCCCC1)NC(=O)[C@H](CSCc1ccccc1)NC(=O)[C@H](N)CCC(=O)O)NC(=O)[C@H](CC1CCCCC1)NC(=O)[C@H](CSCc1ccccc1)NC(=O)[C@H](N)CCC(=O)O)C(=O)NCC(=O)O` [iVR1], the “binding % (PIGF/VEGFR-1 interaction)” value at PIGF/VEGFR-1 interaction (peptide 780 nM) turned out to be 99.36%; on PIGF/VEGFR-1 interaction (peptide 1560 nM), 101.32%; at PIGF/VEGFR-1 interaction (peptide 3125 nM), 96.10%; at PIGF/VEGFR-1 interaction (peptide 6250 nM), 68.49%; on PIGF/VEGFR-1 interaction (peptide 12500 nM), 44.57%; at PIGF/VEGFR-1 interaction (peptide 25000 nM), 36.02%. In addition, the “binding % (PIGF/VEGFR-1 interaction)” value at PIGF/VEGFR-1 interaction (peptide 50000 nM) was 26.26%. Besides, the IC50 on PIGF/VEGFR-1 interaction (read-out: IC50 of inhibition of the interaction of PIGF with VEGFR-1) was about 10 µM; at VEGFR1 (in vitro, reported by Ponticelli et al., read-out: IC50 of inhibition of the interaction of PIGF, VEGF-A and VEGF-B with VEGFR1), about 10 µM; on VEGFR1 (reported in Ponticelli et al., read-out: affinity towards VEGFR1 (expressed as IC50)) it was at least 10 µM; in data set [1] (read-out: IC50 for VEGF-A/VEGFR-1 inhibition) it was about 10 µM. Besides, the “binding % (VEGF-A/VEGFR-1 interaction)” value came to 98.36% in data set [1] (peptide 780 nM); 96.21% in data set [1] (peptide 1560 nM); 93.93% in data set [1] (peptide 3125 nM); 66.00% in data set [1] (peptide 6250 nM); 37.02% in data set [1] (peptide 12500 nM); 21.45% in data set [1] (peptide 25000 nM). Moreover, the “binding % (VEGF-A/VEGFR-1 interaction)” value in data set [1] (peptide 50000 nM) is listed as 8.60%.
As to `N[C@H](CCC(=O)O)C(=O)N[C@@H](CSCc1ccccc1)C(=O)N[C@@H](CC1CCCCC1)C(=O)NCCCC[C@H](NC(=O)[C@H](CC1CCCCC1)NC(=O)[C@H](CSCc1ccccc1)NC(=O)[C@H](N)CCC(=O)O)C(=O)NCCCC[C@H](NC(=O)[C@H](CCCCNC(=O)[C@H](CC1CCCCC1)NC(=O)[C@H](CSCc1ccccc1)NC(=O)[C@H](N)CCC(=O)O)NC(=O)[C@H](CC1CCCCC1)NC(=O)[C@H](CSCc1ccccc1)NC(=O)[C@H](N)CCC(=O)O)C(=O)N[C@H](CS)C(=O)O` [iVR1-Cys], the “% residual peptide ± SD” value in data set [2] (0 h, 50 mM phosphate buffer pH 7.3, initial 10 μmol/L) amounted to 101 ± 4%. For the same compound, in data set [2] (calf (bovine), 10% fetal calf serum, 1 h, pH 7.3, read-out: % residual peptide ± SD), the remaining at 1 h, 10 μmol/L stood at 100 ± 11%. Moreover, the remaining at 2 h, 10 μmol/L in data set [2] (calf (bovine), 10% fetal calf serum, 2 h, pH 7.3, read-out: % residual peptide ± SD) turned out to be 99 ± 7%. For the same compound, in data set [2] (calf (bovine), 10% fetal calf serum, 3 h, pH 7.3, read-out: % residual peptide ± SD), the remaining at 3 h, 10 μmol/L worked out at 98 ± 5%. For the same compound, the remaining at 4 h, 10 μmol/L in data set [2] (calf (bovine), 10% fetal calf serum, 4 h, pH 7.3, read-out: % residual peptide ± SD) was 97 ± 4%. Also, in data set [2] (calf (bovine), 10% fetal calf serum, 5 h, pH 7.3, read-out: % residual peptide ± SD), the remaining at 5 h, 10 μmol/L is 96 ± 5%. For the same compound, in data set [2] (calf (bovine), 10% fetal calf serum, 6 h, pH 7.3, read-out: % residual peptide ± SD), the remaining at 6 h, 10 μmol/L turned out to be 99 ± 6%. Moreover, the remaining at 7 h, 10 μmol/L in data set [2] (calf (bovine), 10% fetal calf serum, 7 h, pH 7.3, read-out: % residual peptide ± SD) was 95 ± 8%. Further, the remaining at 8 h, 10 μmol/L in data set [2] (calf (bovine), 10% fetal calf serum, 8 h, pH 7.3, read-out: % residual peptide ± SD) was 96 ± 5%. In data set [2] (calf (bovine), 10% fetal calf serum, 9 h, pH 7.3, read-out: % residual peptide ± SD), the remaining at 9 h, 10 μmol/L was 95 ± 6%. Besides, the remaining at 10 h, 10 μmol/L in data set [2] (calf (bovine), 10% fetal calf serum, 10 h, pH 7.3, read-out: % residual peptide ± SD) is 94 ± 10%. Further, in data set [2] (calf (bovine), 10% fetal calf serum, 11 h, pH 7.3, read-out: % residual peptide ± SD), the remaining at 11 h, 10 μmol/L was found to be 94 ± 8%. In addition, the remaining at 12 h, 10 μmol/L in data set [2] (calf (bovine), 10% fetal calf serum, 12 h, pH 7.3, read-out: % residual peptide ± SD) was 93 ± 4%. Moreover, in data set [2] (calf (bovine), 10% fetal calf serum, 24 h, pH 7.3, read-out: % residual peptide ± SD), the remaining at 24 h, 10 μmol/L was 93 ± 6%. Moreover, in data set [2] (calf (bovine), 10% fetal calf serum, 72 h, pH 7.3, read-out: % residual peptide ± SD), the remaining at 72 h, 10 μmol/L is 92 ± 7%. Also, the remaining at 120 h, 10 μmol/L in data set [2] (calf (bovine), 10% fetal calf serum, 120 h, pH 7.3, read-out: % residual peptide ± SD) turned out to be 91 ± 5%. Also, in data set [2] (calf (bovine), 10% fetal calf serum, 168 h, pH 7.3, read-out: % residual peptide ± SD), the remaining at 168 h, 10 μmol/L worked out at 92 ± 8%.
